The values below come from paper PMC3156385 (Chemical research in toxicology, 2011).

Data set [1] concerns the target T1, P450 2A6 (Homo sapiens, UniProt P11509).
T1 sequence (P11509 1-494): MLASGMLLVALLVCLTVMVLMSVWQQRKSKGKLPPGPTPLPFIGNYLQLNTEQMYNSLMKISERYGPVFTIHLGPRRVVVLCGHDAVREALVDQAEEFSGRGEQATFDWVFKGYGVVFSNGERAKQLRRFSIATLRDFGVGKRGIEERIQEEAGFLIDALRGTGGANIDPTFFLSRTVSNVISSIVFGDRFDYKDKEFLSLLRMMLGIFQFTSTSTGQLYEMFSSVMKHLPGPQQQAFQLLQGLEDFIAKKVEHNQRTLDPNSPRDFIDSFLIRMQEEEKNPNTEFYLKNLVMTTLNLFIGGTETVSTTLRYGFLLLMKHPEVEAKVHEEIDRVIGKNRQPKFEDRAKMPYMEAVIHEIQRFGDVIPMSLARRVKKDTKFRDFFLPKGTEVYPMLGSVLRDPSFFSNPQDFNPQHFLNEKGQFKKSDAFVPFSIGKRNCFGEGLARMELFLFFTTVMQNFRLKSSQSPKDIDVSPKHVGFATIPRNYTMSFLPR
It is filed as biochemical.

The target in another data set is T2, P450 1A1 (Homo sapiens, UniProt P04798).
T2 sequence (P04798 1-512): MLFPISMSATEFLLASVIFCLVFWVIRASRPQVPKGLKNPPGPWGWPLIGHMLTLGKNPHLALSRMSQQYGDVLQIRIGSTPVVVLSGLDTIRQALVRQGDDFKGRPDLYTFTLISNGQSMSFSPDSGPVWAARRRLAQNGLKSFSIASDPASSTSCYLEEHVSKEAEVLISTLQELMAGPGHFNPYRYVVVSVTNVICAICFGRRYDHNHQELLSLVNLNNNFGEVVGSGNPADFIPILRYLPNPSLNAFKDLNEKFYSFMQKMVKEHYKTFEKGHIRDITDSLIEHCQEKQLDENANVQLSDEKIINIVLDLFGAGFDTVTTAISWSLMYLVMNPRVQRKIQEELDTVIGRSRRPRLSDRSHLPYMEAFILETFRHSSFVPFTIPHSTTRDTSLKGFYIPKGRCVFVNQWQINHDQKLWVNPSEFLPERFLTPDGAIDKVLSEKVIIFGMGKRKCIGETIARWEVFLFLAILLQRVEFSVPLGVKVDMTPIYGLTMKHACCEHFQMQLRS
Briefly: Spectral binding titration with purified recombinant P450 1A1. Particulars: for ΔAmax/Ks / ΔAmax: Reverse Type I binding, 1 µM P450; for ΔAmax: means ± SE.

Data set [2] addresses T3, P450 2A13 (Homo sapiens, UniProt Q16696).
T3 sequence (Q16696 1-494): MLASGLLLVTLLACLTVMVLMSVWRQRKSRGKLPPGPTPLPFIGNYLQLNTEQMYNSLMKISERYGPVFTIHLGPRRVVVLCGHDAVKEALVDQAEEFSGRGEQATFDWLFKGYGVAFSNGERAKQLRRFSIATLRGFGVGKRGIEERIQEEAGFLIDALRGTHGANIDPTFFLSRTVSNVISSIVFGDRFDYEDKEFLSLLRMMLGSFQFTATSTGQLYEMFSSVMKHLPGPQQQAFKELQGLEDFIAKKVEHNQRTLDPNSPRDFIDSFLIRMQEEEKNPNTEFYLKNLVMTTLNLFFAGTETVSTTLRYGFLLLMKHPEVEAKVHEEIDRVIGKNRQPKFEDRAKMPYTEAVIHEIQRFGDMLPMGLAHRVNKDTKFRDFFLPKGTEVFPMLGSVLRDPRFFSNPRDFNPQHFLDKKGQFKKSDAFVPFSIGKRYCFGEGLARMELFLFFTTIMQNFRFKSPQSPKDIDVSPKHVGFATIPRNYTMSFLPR
Description: Inhibition of P450 2A13-dependent coumarin 7-hydroxylation. The format is biochemical.

In another data set the target is T4, P450 1B1 (Homo sapiens, UniProt Q16678).
T4 sequence (Q16678 1-543): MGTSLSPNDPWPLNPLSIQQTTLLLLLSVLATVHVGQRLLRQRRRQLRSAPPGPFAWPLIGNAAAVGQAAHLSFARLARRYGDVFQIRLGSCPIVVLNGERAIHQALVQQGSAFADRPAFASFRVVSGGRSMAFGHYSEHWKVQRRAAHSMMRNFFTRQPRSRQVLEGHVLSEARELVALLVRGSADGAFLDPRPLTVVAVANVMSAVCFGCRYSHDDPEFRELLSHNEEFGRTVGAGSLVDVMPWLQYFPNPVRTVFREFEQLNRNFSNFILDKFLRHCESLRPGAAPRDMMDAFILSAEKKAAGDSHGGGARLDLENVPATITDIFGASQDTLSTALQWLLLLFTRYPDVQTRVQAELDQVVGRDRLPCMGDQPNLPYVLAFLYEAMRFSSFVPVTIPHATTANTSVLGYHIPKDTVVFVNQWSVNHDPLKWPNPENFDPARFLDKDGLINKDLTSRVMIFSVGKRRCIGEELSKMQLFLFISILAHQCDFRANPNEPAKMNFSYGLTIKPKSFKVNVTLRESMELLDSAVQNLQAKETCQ
Briefly: Inhibition of P450 1B1-dependent EROD activity. It is filed as biochemical.

The target in data set [3] is T1, P450 2A6. Description: Spectral binding titration with purified recombinant P450 2A6. Particulars: for ΔAmax/Ks / ΔAmax: Type I binding, 1 µM P450; for ΔAmax: means ± SE.
The target of data set [4] is T3, P450 2A13. Briefly: Spectral binding titration with purified recombinant P450 2A13. The settings on record: for ΔAmax/Ks / ΔAmax: Type I binding; for ΔAmax: means ± SE.
For data set [5], the system named is P450 2A13. Described as above. The settings on record: Ks P450 2A6 / Ks P450 2A13.

Read-outs that look alike come from different tables or passages of the source.

Usually Kd stands for the equilibrium constant for the complex coming apart. A word on the IC50: it is the point on the concentration scale where inhibition reaches its midpoint. Regarding `N#C[Se]Cc1ccccc1` [BSC, benzyl selenocyanate], the “effect of preincubation on inhibition potency of coumarin 7-hydroxylation” value at P450 2A6 [1] was “did not change the inhibition potencies”. The values for the Kd on P450 1A1, on P450 2A6 [3] and on P450 2A13 [4] were 23000 ± 4100 nM, 2000 ± 140 nM and 200 ± 21 nM, respectively. Also, the ΔAmax/Ks at P450 1A1 is 0.61 × 10^−3; on P450 2A6 [3], 32.00 × 10^−3; at P450 2A13 [4] (1 µM P450), 470.00 × 10^−3. The ΔAmax is recorded as 14 ± 1.0 × 10^−3 on P450 1A1, 66 ± 0.93 × 10^−3 on P450 2A6 [3] and 94 ± 1.5 × 10^−3 at P450 2A13 [4] (1 µM P450). The figures for the “type of binding spectra” value on P450 1A1 (difference spectra), on P450 2A6 [3] (difference spectra) and on P450 2A13 [4] (difference spectra) were “Reverse Type I”, “Type I” and “Type I”, respectively. The IC50 against P450 2A13 [2] was found to be 1200 ± 190 nM; against P450 1B1 it was 270 ± 31 nM. Also, the “Ks of P450 2A13 lower than with P450 2A6” value with P450 2A13 [5] is recorded as 10 fold.

In the case of `N#C[Se]Cc1cccc(C[Se]C#N)c1` [m-XSC, 1,3-phenylenebis(methylene)selenocyanate], on P450 2A6 [1] (preincubation 15 min with NADPH vs without), the “effect of preincubation on inhibition potency of coumarin 7-hydroxylation” value is “did not change the inhibition potencies”. Moreover, the “coumarin 7-hydroxylation, % of control” value on P450 2A6 [1] (with preincubation 15 min with NADPH, 1.0 µM coumarin, BSC 4.3 µM, m-XSC 0.68 µM) was 48 % of control; on P450 2A6 [1] (without preincubation, 1.0 µM coumarin, BSC 4.3 µM, m-XSC 0.68 µM), 48 % of control. In addition, the “coumarin 7-hydroxylation” value at P450 2A6 [1] (without preincubation, 1.0 µM coumarin, BSC 4.3 µM, m-XSC 0.68 µM, control 3.26) stood at 1.56 nmol/min/nmol P450. For the same compound, the Kd on P450 1A1 worked out at 30000 ± 4500 nM; on P450 2A6 [3] it was 5700 ± 520 nM; at P450 2A13 [4] it was 200 ± 15 nM. Also, the ΔAmax/Ks at P450 1A1 is recorded as 0.60 × 10^−3; at P450 2A6 [3] it was 6.50 × 10^−3; on P450 2A13 [4] (1 µM P450), 395.00 × 10^−3; on P450 2A13 [4] (as printed in text without ×10^−3), 0.40. In addition, the ΔAmax at P450 1A1 is on record as 18 ± 1.2 × 10^−3; at P450 2A6 [3], 37 ± 0.88 × 10^−3; at P450 2A13 [4] (1 µM P450) it was 79 ± 0.91 × 10^−3. Also, on P450 2A13 [2], the IC50 came to 220 ± 31 nM. Besides, the “metabolism-dependent inhibition of P450 1B1 (EROD)” value on P450 1B1 (m-XSC 0.033, 0.083, 0.33 µM, preincubation 2 and 4 min with NADPH) is recorded as “no metabolism-dependent inhibition”. The “Ks of P450 2A13 lower than with P450 2A6” value in the data set on P450 2A13 [5] was determined as 28 fold.
